Assay results: US3987167A, “Antibiotic 20,798 R.P” (Rhone-Poulenc S.A., priority 1968, dated 1976)

How the values were obtained:
leucaemia L1210 = assay: Anti-tumour activity in mice, leucaemia L1210; details: graftable tumours of mice, leucaemia L 1210
[1] = tested on: acute lymphoblastic and myeloblastic leucaemias; assay: Activity in human therapy; type: in vivo; details: intravenous, daily doses between 0.1 and 2 mg./kg., adult
Description: In human therapy 20,798 R.P. is active, particularly against acute lymphoblastic and myeloblastic leucaemias, when administered intravenously at daily doses of between 0.1 and 2 mg./kg. for an adult; a composition for injection for example, consists of a solution of 0.1 mg./cc. of active substance in physiological serum.

[2] = Stability to acid treatment of the fermentation broth; type: physicochemical; details: 10° to 75° C., 48 hours to 30 minutes
Description: When desired, the fermentation broth can, before the extraction procedures, be treated with an acid at a temperature between 10° and 75° C. for a period of from 48 hours to 30 minutes, the length of time varying inversely with the temperature, so as to enrich the antibiotic 9865 R.P. with daunorubicin. […] For acidification of the fermentation broth inorganic acids (hydrochloric, phosphoric or sulphuric acid) or organic acids (acetic or oxalic acid etc.) are suitable at various concentrations, but preferably hydrochloric acid or oxalic acid is used at concentrations of between 0.01N and 1N. The hydrolysis is preferably carried out for a period of from 15 hours to 1 hour at a temperature of from 20 C. to 50° C., the length of time varying inversely with the temperature.

sarcoma 180 = assay: Anti-tumour activity in mice, sarcoma 180; details: graftable tumours of mice, solid form of sarcoma 180

SMILES: COc1cccc2c1C(=O)c1c(O)c3c(c(O)c1C2=O)CC(O)(C(C)O)CC3OC1CC(N)C(O)C(C)O1 (stereo not shown) [20,798 R.P.]
- anti-tumour activity (leucaemia L1210): particularly active
- activity in human therapy [1]: active
- hydrolysis on acid treatment [2]: not hydrolysed
- anti-tumour activity (sarcoma 180): particularly active
